Test [1] addresses T1, EF2K (Homo sapiens, UniProt O00418).
T1 construct: host or cells: LN-229 cell lysate
T1 sequence (O00418 1-725): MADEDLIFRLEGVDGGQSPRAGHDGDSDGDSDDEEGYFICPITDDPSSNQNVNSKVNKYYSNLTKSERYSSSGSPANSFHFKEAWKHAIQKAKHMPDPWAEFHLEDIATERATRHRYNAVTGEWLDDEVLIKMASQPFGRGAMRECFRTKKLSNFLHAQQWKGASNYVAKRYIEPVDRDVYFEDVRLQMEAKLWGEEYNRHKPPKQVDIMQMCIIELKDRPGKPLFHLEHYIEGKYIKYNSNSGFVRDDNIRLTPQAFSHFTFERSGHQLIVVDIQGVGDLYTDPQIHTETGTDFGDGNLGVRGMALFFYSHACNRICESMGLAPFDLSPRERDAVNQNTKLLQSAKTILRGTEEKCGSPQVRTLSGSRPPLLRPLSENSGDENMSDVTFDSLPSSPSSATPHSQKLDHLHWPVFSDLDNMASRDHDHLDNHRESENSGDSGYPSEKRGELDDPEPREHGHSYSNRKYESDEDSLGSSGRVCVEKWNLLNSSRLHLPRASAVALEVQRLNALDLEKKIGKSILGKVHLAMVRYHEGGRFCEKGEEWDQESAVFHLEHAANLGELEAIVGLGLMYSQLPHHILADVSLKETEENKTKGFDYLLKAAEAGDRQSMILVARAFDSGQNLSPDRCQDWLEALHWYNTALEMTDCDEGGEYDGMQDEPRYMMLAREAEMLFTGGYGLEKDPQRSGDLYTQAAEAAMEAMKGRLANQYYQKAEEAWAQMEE
In words: EF2K cell-based assay (P-EF2 AlphaLISA, 2-deoxyglucose stimulated MCF10A cells). As to conditions: 2.5 mM 2-deoxyglucose stimulated, P-EF2 Thr56, pIC50 = -log IC50 (M), read-out: eEF2K_C_PThr56 pIC50 (converted). The method, boiled down: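 MCF10A cells, after 24 h culture, treated 1 h with compound then stimulated 4 h with 2.5 mM 2-deoxyglucose to activate AMPK. Lysates in M-PER with protease/phosphatase inhibitors assayed for P-EF2 by AlphaLISA; pIC50 = −log IC50 (M).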
In general terms: Bead proximity is the source of the signal in Alpha formats.

The target in test [2] is Vps34 (PIK3C3 lipid kinase) (Homo sapiens, UniProt Q8NEB9). The experiment in a line: Biochemical Vps34 lipid kinase assay (ADP-Glo). As to conditions: for remaining activity at 1 µM: 1 h, read-out: VPS34_1microM_% of cntrl; for IC50: serial half-log dilution 10 μM to 0.3 nM, pIC50 = -log IC50 (M). The method in brief:
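ADP-Glo luminescence assay of PIK3C3 (7.6 nM) with 50 µM substrate and 20 µM ATP (apparent Km) in HEPES pH 7.5, 100 mM NaCl, 3 mM MnCl2, CHAPS, DTT; 60 min, 30 °C. Single dose 1 µM (residual activity vs DMSO) or half-log series 10 µM-0.3 nM giving pIC50.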
On the technique in general: In ADP-Glo the light output rises with the ADP produced.

Test [3] deals with T1, EF2K. In words: Biochemical EF2K lysate-based kinase assay (AlphaLISA p-eEF2 Thr56). As to conditions: pIC50 = -log IC50 (M), read-out: eEF2K_C_alphalisa pIC50 (converted). The method, boiled down: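 LN-229 glioblastoma lysate supplied both EF2K and eEF2 substrate; compound incubated 15 min at room temperature in pH 6.6 buffer with 10 mM Mg2+ and 10 mM ATP. EDTA-stopped; phospho-eEF2 Thr56 quantified by AlphaLISA sandwich, final read after overnight. Values as pIC50.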

Where [4] appears, read: single dose 1 μM compound, residual activity compared to control (DMSO).

Where only a bound is given, the exact number is not on record here.

Chain of Vps34 (PIK3C3 lipid kinase) (Q8NEB9 whole entry, species assumed): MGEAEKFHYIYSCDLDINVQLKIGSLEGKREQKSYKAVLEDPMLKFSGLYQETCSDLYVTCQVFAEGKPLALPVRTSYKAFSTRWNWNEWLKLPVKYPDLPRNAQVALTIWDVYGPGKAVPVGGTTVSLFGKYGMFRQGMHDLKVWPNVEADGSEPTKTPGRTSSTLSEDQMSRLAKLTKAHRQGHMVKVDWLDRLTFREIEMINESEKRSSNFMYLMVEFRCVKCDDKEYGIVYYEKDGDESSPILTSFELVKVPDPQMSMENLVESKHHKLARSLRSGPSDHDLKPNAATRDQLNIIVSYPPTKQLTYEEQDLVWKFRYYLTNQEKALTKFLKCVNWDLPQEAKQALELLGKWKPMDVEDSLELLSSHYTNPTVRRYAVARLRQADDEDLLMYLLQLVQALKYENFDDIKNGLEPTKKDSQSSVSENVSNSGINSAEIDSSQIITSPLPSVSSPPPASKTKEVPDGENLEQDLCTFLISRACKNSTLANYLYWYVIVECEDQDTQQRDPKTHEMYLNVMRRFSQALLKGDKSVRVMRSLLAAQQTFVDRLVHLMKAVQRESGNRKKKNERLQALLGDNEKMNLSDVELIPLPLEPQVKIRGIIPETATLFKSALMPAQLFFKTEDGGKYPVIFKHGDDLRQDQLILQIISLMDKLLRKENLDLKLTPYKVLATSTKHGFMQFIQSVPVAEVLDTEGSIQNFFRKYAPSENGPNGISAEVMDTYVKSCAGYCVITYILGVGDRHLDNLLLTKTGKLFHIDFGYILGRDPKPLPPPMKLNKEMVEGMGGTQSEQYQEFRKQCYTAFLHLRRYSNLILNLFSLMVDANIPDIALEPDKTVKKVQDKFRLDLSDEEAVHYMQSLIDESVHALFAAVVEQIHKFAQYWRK

In the case of `CN1CCCNC(=O)CN2CCN(CC2=O)Cc2cccc(c2)Nc2nccc(n2)-c2ccc1nc2` [Compound 78], the figures for the IC50 (at EF2K [1]; in test [2]; on EF2K [3]) were above 3.02e-05 M, 1.32e-07 M and 1.2e-06 M, respectively. In test [2] (setting [4]), the remaining activity at 1 µM was found to be 7.48%.
In the same order, the values of `O=C1CC2CCN(CC2)Cc2cccc(c2)Nc2nccc(n2)-c2ccc(nc2)NCCCN1` [Compound 79] are above 3.02e-05 M, 6.03e-07 M, above 3.02e-05 M and 24.3%.
Take `O=C1CN2CCN(CC2)Cc2cccc(c2)Nc2nccc(n2)-c2ccc(nc2)N2CCCC2CN1` (stereo not drawn) [Compound 80]: the IC50 at EF2K [1] was 5.5e-06 M; at EF2K [3] it was 1.74e-07 M. Further, the VPS34_1microM_% of cntrl in test [2] (setting [4]) is on record as 63.22 % of cntrl.
`CN1CCCN(C)c2ccc(cn2)-c2ccnc(n2)Nc2cccc(c2)CN2CCC(CC2)CC1=O` [Compound 81]: the results for the IC50 (on EF2K [1]; in test [2]; at EF2K [3]) were 1.82e-05 M, 8.91e-07 M and 2.4e-06 M, respectively. For the same compound, in test [2] (setting [4]), the remaining activity at 1 µM is 26.4%.
Consider `CN1CCCN(C)c2ccc(cn2)-c2ccnc(n2)Nc2cccc(c2)CN2CCN(CC1=O)C(=O)C2` [Compound 82], for which the figures for the IC50 (at EF2K [1]; in test [2]; at EF2K [3]) were above 3.02e-05 M, 4.07e-07 M and 3.39e-07 M, respectively. The remaining activity at 1 µM in test [2] (setting [4]) came to 10.8%.
In the same order, the values of `CN1CCCN(C)c2ccc(cn2)-c2ccnc(n2)Nc2cccc(c2)CN2CCN(CC2)C(=O)C1` [Compound 83] are above 3.02e-05 M, 6.92e-08 M, 1.78e-06 M and 3.25%.
For `CN1CCCN(C)c2ncc(cn2)-c2ccnc(n2)Nc2cccc(c2)CN2CCN(CC2)CC1=O` [Compound 84], the IC50 is 8.71e-06 M on EF2K [1] and 2.88e-07 M at EF2K [3]. For the same compound, the remaining activity at 1 µM in test [2] (setting [4]) was 30.6%.
On to `O=C1CN2CCN(CC2)Cc2cccc(c2)Nc2nccc(n2)-c2ccc(nc2)NC(=O)CCN1` [Compound 85], for which the IC50 at EF2K [1] was above 3.02e-05 M; at EF2K [3], 2.69e-06 M. Also, the remaining activity at 1 µM in test [2] (setting [4]) is 47.6%.
In the same order, the values of `CN1CCCN(C)c2ccc(cc2)-c2ccnc(n2)Nc2cccc(c2)CN2CCN(CC1=O)C(C(=O)OCc1ccccc1)C2` (stereo not drawn) [Compound 92] are above 3.02e-05 M, 8.91e-08 M and 38.3%.
Turning to `COCC1CN2CCN1Cc1cccc(c1)Nc1nccc(n1)-c1ccc(nc1)N(C)CCCN(C)C(=O)C2` (stereo not drawn) [Compound 97], the IC50 at EF2K [1] is 2.24e-05 M; in test [2], 5.37e-07 M; on EF2K [3] it was 1.51e-07 M. In test [2] (setting [4]), the remaining activity at 1 µM was determined as 24.6%.
As to `CN1CCCN(C)c2ccc(cn2)-c2ccnc(n2)Nc2cccc(c2)CN2CCN(CC1=O)CC2COCCN1CCOCC1` (stereo not drawn) [Compound 98], the IC50 on EF2K [1] is 2.75e-05 M; at EF2K [3], 1.48e-07 M. Moreover, the remaining activity at 1 µM in test [2] (setting [4]) amounted to 33.9%.
For the compound `COCCOCC1CN2CCN1Cc1cccc(c1)Nc1nccc(n1)-c1ccc(nc1)N(C)CCCN(C)C(=O)C2` (stereo not drawn) [Compound 101], the IC50 on EF2K [1] was 2.04e-05 M; in test [2], 7.76e-07 M; on EF2K [3] it was 1.7e-07 M. Further, in test [2] (setting [4]), the remaining activity at 1 µM turned out to be 29.4%.
In the same order, the values of `CN1CCCN(C)c2ccc(cn2)-c2ccnc(n2)Nc2cccc(c2)CN2CCN(CC1=O)CC2COCCO` (stereo not drawn) [Compound 103] are 1.86e-05 M, 6.76e-07 M, 1.95e-07 M and 28.3%.
Take `CN1CCN(CCOCC2CN3CCN2Cc2cccc(c2)Nc2nccc(n2)-c2ccc(nc2)N(C)CCCN(C)C(=O)C3)CC1` (stereo not drawn) [Compound 106]: the IC50 at EF2K [1] is 1.66e-05 M; at EF2K [3] it was 3.02e-07 M. Also, the remaining activity at 1 µM in test [2] (setting [4]) amounted to 36.3%.
Consider `CN1CCCN(C)c2ccc(cn2)-c2ccnc(n2)Nc2cccc(c2)CN2CCN(CC1=O)CC2COCCN1CCNCC1` (stereo not drawn) [Compound 107], for which the IC50 at EF2K [1] is above 3.02e-05 M; on EF2K [3], 3.24e-07 M. In addition, the remaining activity at 1 µM in test [2] (setting [4]) turned out to be 32.7%.
Take `CN(C)CCOCC1CN2CCN1Cc1cccc(c1)Nc1nccc(n1)-c1ccc(nc1)N(C)CCCN(C)C(=O)C2` (stereo not drawn) [Compound 108]: the IC50 on EF2K [1] was 2.45e-05 M; in test [2], 5.25e-07 M; on EF2K [3] it was 2.09e-07 M. For the same compound, the remaining activity at 1 µM in test [2] (setting [4]) was determined as 25.5%.
In the same order, the values of `CN1CCCN(C)c2ccc(cn2)-c2ccnc(n2)Nc2cccc(c2)CC2CCN(CC2)CC1=O` [Compound 109] are above 3.02e-05 M, 2.88e-07 M, 1.35e-06 M and 14.7%.
In the same order, the values of `CN1CCCN(C)c2ccc(cn2)-c2ccnc(n2)Nc2cccc(c2)N2CCN(CC2)CC1=O` [Compound 110] are above 3.02e-05 M, 3.47e-07 M, 1.48e-06 M and 7.68%.
In the same order, the values of `O=C1CNCCCNc2ccc(cn2)-c2ccnc(n2)Nc2cccc(c2)N2CCN1CC2` [Compound 111] are above 3.02e-05 M, 1.7e-07 M, 4.47e-06 M and 1.43%.
Take `O=C1CNCCCNc2ccc(cn2)-c2ccnc(n2)Nc2cccc(c2)CN2CCN1CC2` [Compound 112]: the IC50 at EF2K [1] is 7.41e-06 M; in test [2] it was 6.03e-08 M; on EF2K [3], 3.89e-06 M. In test [2] (setting [4]), the remaining activity at 1 µM turned out to be 6.25%.
In the same order, the values of `O=C1CNCCNc2ccc(cn2)-c2ccnc(n2)Nc2cccc(c2)CN2CCN1CC2` [Compound 113] are 4.47e-06 M, 1.66e-07 M, 2.82e-06 M and 7.65%.
For the compound `CN1CCCN(C)c2ccc(cn2)-c2ccnc(n2)Nc2cccc(c2)CC2(O)CCN(CC2)CC1=O` [Compound 114], the IC50 on EF2K [1] was 2.34e-05 M; on EF2K [3] it was 4.47e-06 M. For the same compound, the remaining activity at 1 µM in test [2] (setting [4]) is 30.8%.
For the compound `O=C1CN2CCC(CC2)Cc2cccc(c2)Nc2nccc(n2)-c2ccc(nc2)NCCCN1` [Compound 115], the IC50 was above 3.02e-05 M on EF2K [1], 1.51e-07 M in test [2] and 2.14e-07 M on EF2K [3]. For the same compound, the remaining activity at 1 µM in test [2] (setting [4]) came to 6.01%.
In the same order, the values of `O=C1CN2CCN(CC2)S(=O)(=O)c2cccc(c2)Nc2nccc(n2)-c2ccc(nc2)NCCCN1` [Compound 116] are above 3.02e-05 M, 4.47e-07 M, 7.76e-06 M and 14%.
For `O=C1CN2CCN(CC2)C(=O)c2cccc(c2)Nc2nccc(n2)-c2ccc(nc2)NCCCN1` [Compound 117], the IC50 on EF2K [1] is above 3.02e-05 M; in test [2], 2e-07 M; on EF2K [3], 3.47e-07 M. Further, the remaining activity at 1 µM in test [2] (setting [4]) is 11.7%.
In the same order, the values of `O=C1CN2CCN(CCc3cccc(c3)Nc3nccc(n3)-c3ccc(nc3)NCCCN1)CC2` [Compound 118] are above 3.02e-05 M, 1.41e-07 M, 7.94e-06 M and 8.1%.
In the same order, the values of `O=C1CN2CCN(CC2)Cc2cccc(c2)Nc2nccc(n2)-c2ccc(nc2)NCCN1` [Compound 119] are 5.01e-06 M, 1.7e-07 M, 7.94e-07 M and 15.7%.
With `O=C1CN2CCN(CC2)Cc2cc(ccc2Cl)Nc2nccc(n2)-c2ccc(nc2)NCCCN1` [Compound 120], the IC50 on EF2K [1] is 1.45e-05 M; in test [2] it was 1.2e-07 M; on EF2K [3], 1.74e-07 M. Further, the remaining activity at 1 µM in test [2] (setting [4]) came out at 7.29%.
`COCCN1CCNc2ccc(cn2)-c2ccnc(n2)Nc2cccc(c2)CN2CCN(CC2)CC1=O` [Compound 123]: the IC50 on EF2K [1] was above 3.02e-05 M; in test [2] it was 3.89e-06 M; on EF2K [3] it was 8.71e-06 M. For the same compound, the remaining activity at 1 µM in test [2] (setting [4]) is 23.6%.
As for `CN1CCCNc2ccc(cn2)-c2ccnc(n2)Nc2cccc(c2)CN2CCC(CC2)CC1=O` [Compound 124], the IC50 at EF2K [1] and at EF2K [3] was above 3.02e-05 M in each case. The remaining activity at 1 µM in test [2] (setting [4]) turned out to be 53.2%.

The values above are taken from US10017509B2, “Macrocylic pyrimidine derivatives” (Janssen Pharmaceutica NV, priority 2014, dated 2018).
